Measurements from ChEMBL document CHEMBL1157539, “Thousands of chemical starting points for antimalarial lead identification” (Nature, 2010).

These compounds were tested on Plasmodium falciparum (assay: GSK_TCMDC: Inhibition of Plasmodium falciparum 3D7 in whole erythrocytes, using parasite LDH activity as an index of growth.). Conditions: Plasmodium falciparum, 3D7.
Type: functional, organism-based

Row | Structure (SMILES) | XC50 [nM]
1 | CO/C(=C\C=C/c1cc2cc(Cl)c(Cl)cc2[nH]1)C(=O)NC1CC(C)(C)N(C)C(C)(C)C1 | 833
2 | CCN(CC)CCN(Cc1ccc(-c2ccc(Cl)cc2)cc1)C(=O)Cn1c(CCc2cccc(F)c2F)nc(=O)c2ccccc21 | 769
3 | CC1CCCC(NCc2c(O)ccc3ccccc23)C1 (stereo unspecified) | 931
4 | O=[N+]([O-])c1cccc(Nc2nccc(-c3cnn4ncccc34)n2)c1 | 184
5 | Cc1nnc2sc(-c3cccc(NC(=O)c4ccc(N5CCCCC5)c([N+](=O)[O-])c4)c3)nn12 | 1300
6 | Cc1cc(N[C@@H](Cc2ccccc2)C(=O)NCc2cccc(F)c2)nc(NCCc2ccccc2)n1 | 1020
7 | O=C(N[C@@H](CC1CCCCC1)C(=O)NCCN1CCOCC1)c1ccc(O)c(-c2ccc(Cl)c(Cl)c2)c1 | 181
8 | Cc1cc(CN2CC[C@H](NC(=O)c3ccc(Cl)c(Cl)c3)C2)ccc1OCCN1CCNCC1 | 944
9 | CN1CCN(CC(=O)Nc2ccc(-c3ccc(-c4nc5ccccc5[nH]4)cc3)cc2)CC1 | 696
10 | O=c1c(NCCCN(Cc2ccc(F)cc2)c2ccccn2)c(NCc2ccncc2)c1=O | 153
11 | COc1cc2c(c(Cl)c1OC)CCN(C(=O)C(F)(F)F)CC2c1ccccc1 (stereo unspecified) | 441
12 | c1ccc(C2CCC(N3CCC(N4CCCC4)CC3)CC2)cc1 (stereo unspecified) | 671
13 | N#Cc1ccc2c(c1)CN(CCC1CCC(NC(=O)c3cc4ccccc4cc3N)CC1)CC2 (stereo unspecified) | 1040
14 | O=C(/C=C/c1ccc(Cl)c(Cl)c1)NCCCCCN1CC[C@H](NC(=O)Nc2ccc(Oc3ccccc3)cc2)C1 | 703
15 | Cc1cc(C(F)(F)F)cc(-n2ncc(-c3ccc(C(=O)NCCNCc4ccccc4)cc3)c2N)n1 | 1070
16 | O=C(/C=C/c1ccc(Cl)c(Cl)c1)N1CCC(CCCN2CCC(c3c[nH]c4ccccc34)CC2)CC1 | 707
17 | Cc1cccc2nc(-c3cccc(-c4ccc(C(=O)NCCc5ccc(O)c(=O)[nH]5)cc4)c3)[nH]c12 | 1190
18 | CN1CCC(N2CCN(Cc3cccc(-c4ccc(-c5nc6cc(F)ccc6[nH]5)cc4)c3)CC2)CC1 | 107
19 | Cc1nc(N)nc(N)c1CCCOc1ccc(Br)cc1 | 485
20 | O=C(Nc1ccc(OC2CCN(Cc3ccccc3)C2)c(Cl)c1)c1ccco1 (stereo unspecified) | 406
21 | CC(=O)c1ccc(NC(=O)CSc2nc(-c3ccccc3Cl)ns2)cc1 | 1130
22 | N=C(N)NN=CC(=O)Nc1ccc(Cl)c(C(F)(F)F)c1 | 892
23 | Cc1cccc2nc(-c3ccc(-c4ccc(NC(=O)Nc5ccc(F)c(F)c5F)cc4)cc3)[nH]c12 | 273
24 | COc1cccc(NC(=O)Nc2ccc(Nc3nc(C)cc(N4CCCC4)n3)cc2)c1 | 198

Row | Structure (SMILES) | XC50 [nM]
25 | COCCCN=C(S)NN=C(C)c1ccccn1 | 296
26 | O=S(=O)(NCCCN1CCOCC1)c1ccc2nccc(Nc3ccc(Oc4ccccc4)cc3)c2c1 | 855
27 | c1ccc(CNCc2cccc(-c3csc(-c4nc5ccccc5[nH]4)c3)c2)cc1 | 456
28 | COC(=O)c1ccccc1N1CCN(CCCCNC(=O)c2ccc(NC(=O)c3cc(Cl)cc(Cl)c3)cc2)CC1 | 558
29 | COc1cc(Nc2nc(N)c3cc(OC)c(OC)cc3n2)cc(OC)c1 | 272
30 | CCc1c[nH]c2c(N3CCCC3=O)cc(C(=O)N[C@@H](Cc3ccccc3)[C@H](O)CNC(C)(C)c3cccc(OC)c3)cc12 | 192
31 | CS(=O)(=O)CCNCc1cccc(-c2cc3c(Nc4ccc(OCc5ccccc5)cc4)ncnc3cn2)c1 | 734
32 | CC(=O)c1c(Cc2ccccc2Cl)c[nH]c1C | 848
33 | CCCCCCCN1CC[C@@H](CCCc2ccnc3ccc(OCCCCNC(N)=O)cc23)[C@@H](CC)C1 | 835
34 | Nc1ccnc(N2CCC(CCOc3ccnc4cc(Cl)ccc34)CC2)c1 | 1160
35 | COc1ccccc1CCNc1nc(C)cc(N[C@@H](Cc2ccccc2)C(=O)NCCOc2ccccc2)n1 | 1210
36 | Cc1noc(-c2ccccc2)c1CN1CCCC2(CC(C(=O)NCc3cccc(F)c3F)=NO2)C1 (stereo unspecified) | 1010
37 | O=C(Nc1ccc(-c2nc3ccccc3[nH]2)cc1)c1ccc(Cl)s1 | 595
38 | O=C(NCCCN1CCC(Cc2ccccc2)CC1)c1cc2c(Cl)nc3ccccc3c2s1 | 744
39 | CC[C@H]1CN2CC[C@H]1C[C@H]2[C@H](O)c1cc(N2CCCC2)nc2ccc(OC)cc12 | 44.8
40 | O=C1CCCN1CCCNCc1ccc(-c2ccc(-c3nc4cc(C(F)(F)F)ccc4[nH]3)s2)cc1 | 380
41 | CC1(C)NC(N)=NC(=N)N1OCCCc1c(Cl)cccc1Cl | 3.2
42 | Cc1cccc(CNc2nc(C)cc(N[C@@H](Cc3ccccc3)C(=O)NCc3cccc(F)c3)n2)c1 | 1040
43 | c1ccc(Oc2ccc(Nc3ccnc4ccc(-c5ccccn5)cc34)cc2)cc1 | 1100
44 | O=C(Nc1cncc(NC(=O)c2ccc(Cl)c(Cl)c2)c1)c1ccc(Cl)c(Cl)c1 | 730
45 | Cc1ccccc1NC(=O)NC1CCN(CCCCCNC(=O)/C=C/c2ccc(Cl)c(Cl)c2)CC1 | 769
46 | COc1cc2nc(NCc3nc4ccccc4[nH]3)nc(N)c2cc1OC | 885
47 | O=C(NCc1ccc(F)cc1)c1cnc(N2CCN(c3ccncc3)CC2)c(Cl)c1 | 1390
48 | CC(C)(C)c1nn(-c2ccccc2)c2[nH]c(=O)c(CNCc3ccccc3)cc12 | 1050

Row | Structure (SMILES) | XC50 [nM]
49 | COc1cc(Cc2cnc(N)nc2N)cc(OCCCCCCN2C(=O)c3ccccc3C2=O)c1OC | 1100
50 | O=C(Nc1nc2cc(S(=O)(=O)NCCCN3CCOCC3)ccc2n1CCCn1ccnc1)c1ccc(Cl)cc1 | 925
51 | O=C(Nc1ccc(Cn2nc(Cl)c(N3CCNCC3)cc2=O)cc1)Nc1ccc(-c2ccccc2)cc1 | 753
52 | CC(C)COc1ccc(Cl)cc1Cc1ccc(-c2nc3cc(F)c(F)cc3[nH]2)o1 | 894
53 | COc1cc(NCC(C)CNCc2cn(Cc3ccccc3)c3ccccc23)nc2ccccc12 (stereo unspecified) | 633
54 | CCc1ccc(NC(=O)c2ccc(CN3CCCN(Cc4cccc(Cl)c4)CC3)cc2)cc1 | 1110
55 | COc1cccc(Nc2nc(Nc3cccc(C#N)c3)cc(C(F)(F)F)n2)c1 | 834
56 | Clc1cc(Cl)c2c(c1)C(NCCCNc1nc3ccccc3[nH]1)CCO2 (stereo unspecified) | 325
57 | COc1ccc2ncc(F)c(CCN3CC(O)C(CNCc4ccccc4)C3)c2n1 (stereo unspecified) | 910
58 | CS(=O)(=O)c1ccc(CCNCc2ccc(-c3ccc(CN(C(=O)c4ccc(Cl)nc4)C4CCN(Cc5ccccc5)CC4)cc3)nc2)cc1 | 801
59 | COc1cc(C(=O)Nc2cccc(-c3nc4ccccc4[nH]3)c2)cc(OC)c1OC | 723
60 | CN1CCN(c2ccc(CNc3ccc4ncc(-c5cccc(OC(F)(F)F)c5)n4n3)cc2)CC1 | 862
61 | COc1ccc2nccc([C@@H](O)CN3CCC(NC(=O)c4cc5cccnc5[nH]4)CC3)c2c1 | 894
62 | CC(C)(C)c1ccc(NC(=O)c2cccc(CN3CCCN(Cc4cccc(Cl)c4)CC3)c2)cc1 | 997
63 | CCOc1ccc2c(=NN=Cc3cccc(Cl)c3)cc(C)[nH]c2c1 | 864
64 | CCCN(Cc1nnc(-c2ccco2)o1)C(=O)C1CCCN(C(=O)c2ccc(Cl)cc2)C1 (stereo unspecified) | 518
65 | CN(Cc1cccc(O)c1)C1CCN(c2cc(NC(=O)c3ccc(F)cc3)ccn2)C1 (stereo unspecified) | 1150
66 | CN(C)S(=O)(=O)n1ccc2c3c(N)nc(N)nc3ccc21 | 45.9
67 | O=C(C=Cc1ccc(Cl)c(Cl)c1)NCCCCCN1CCC(CCCNC(=O)/C=C/c2ccccc2)CC1 | 592
68 | Cc1cc(C(=O)OCC(N)=O)c(C)n1-c1ccc(F)cc1 | 331
69 | CC1(C)N=C(N)N=C(N)C1c1ccc(Cl)c(Cl)c1 (stereo unspecified) | 25.9
70 | CCCC(CNCc1ccc(Cl)c(C(F)(F)F)c1)CNc1nc2cnccc2[nH]1 (stereo unspecified) | 291
71 | O=C(Nc1ccc(Cl)c(Cl)c1)Nc1cc(C(F)(F)F)ccc1Cl | 1440
72 | CS(=O)(=O)N(c1ccccc1)c1cc(C(=O)N[C@@H](Cc2ccccc2)[C@H](O)CNC2CC2)cc(N2CCCC2=O)c1 | 305

Row | Structure (SMILES) | XC50 [nM]
73 | O=C(NCCN1CCCCC1)c1ccc(CNC(=O)c2ccc(O)c(-c3ccc(Cl)c(Cl)c3)c2)cc1 | 900
74 | Oc1cccc(CNCCCN(Cc2ccccc2)c2ccccc2)c1 | 600
75 | CCc1c[nH]c2c(N(c3ccccc3)S(C)(=O)=O)cc(C(=O)N[C@@H](Cc3ccccc3)[C@H](O)CNC(C)(C)CCCC(C)C)cc12 | 823
76 | O=C(Nc1ccc(OC2CCN(Cc3ccccc3)CC2)c(Cl)c1)c1cccs1 | 312
77 | Cc1sc2ccc(Cl)cc2c1S(=O)(=O)Nc1ccc2nccc(N3CC(C)NC(C)C3)c2c1 (stereo unspecified) | 114
78 | Cc1ccccc1Nc1cc(Nc2ccccc2C)c2ccccc2n1 | 782
79 | Cc1cccc2nc(-c3ccc(-c4cccc(NC(=O)CCc5c[nH]cn5)c4)cc3)[nH]c12 | 410
80 | CC(C)CC(=O)Nc1cc(=O)[nH]c2nc(-c3ccccc3)nn12 | 351
81 | CCn1ccc2c(N3CCCC3=O)cc(C(=O)N[C@@H](Cc3ccccc3)[C@H](O)CNC(C)(C)CCCC(C)C)cc21 | 347
82 | C[C@H](Cc1ccc(OCCCCCCOc2ccc(C[C@@H](C)N[C@H](C)c3ccccc3)cc2)cc1)NC[C@H](O)c1cccc(Cl)c1 | 241
83 | CC(=O)c1c(CC(=O)O)c2ccccc2n1O | 735
84 | COc1ccc(NC(=S)NC(NC(=O)CF)C(Cl)(Cl)Cl)cc1[N+](=O)[O-] (stereo unspecified) | 479
85 | COc1ccc2nc3cc(Cl)ccc3c(Nc3ccc(O)c(CNC(C)C)c3)c2c1 | 140
86 | CC(=O)Nc1[nH]c(-c2ccccc2)nc1C(N)=O | 249
87 | COc1ccc2nccc([C@@H](O)CN3CCC(NCc4ccc5c(n4)NCCC5)CC3)c2c1 | 738
88 | CN1CCN(Cc2ccc(-c3ccc4c(Nc5cc(O)c(F)cc5Cl)ccnc4c3)o2)CC1 | 132
89 | CN(C)C=Nc1ccc(OCCCCCCOc2ccc(N=CN(C)C)cc2)cc1 | 132
90 | COc1ccc(CN(C)Cc2ccc(NC(=O)c3cccc4c(=O)c5cccc(C)c5[nH]c34)cc2)cc1OC | 844
91 | COc1cc2nc(NCCCOC(C)C)n3nc(-c4ccccc4)nc3c2cc1OC | 196
92 | COc1cc(F)c2ncc(F)c(CCN3C[C@H](CNCc4ccc5c(n4)NC(=O)CS5)[C@H](O)C3)c2c1 | 462
93 | O=C(Nc1ccc(-c2csc(-c3nc4ccccc4[nH]3)c2)cc1)Nc1ccsc1 | 552
94 | CC(=O)c1cccc(NC(=O)N2CCCN(CCCCCNC(=O)/C=C/c3ccc(Cl)c(Cl)c3)CC2)c1 | 1010
95 | C=CCOC(=O)N1CCC(CNCc2cccc(-c3cccc(-c4nc5cccc(C)c5[nH]4)c3)c2)C1 (stereo unspecified) | 109
96 | CS(=O)(=O)Nc1cccc(-c2cnc3[nH]cc(-c4ccc(CCC(=O)O)cc4)c3c2)c1 | 1060
